Assay results reported in patent US7585895B2, “Therapeutic substituted cyclopentanes” (Allergan, Inc., priority 2005, dated 2009).

How the values were obtained:
EP4 receptors = biological target: T1, EP4 receptors (Homo sapiens, UniProt P35408); assay: Radioligand binding, [3H]PGE2, EP4 (Ki); settings: HEK-293 cells stably expressing EP4, [3H]PGE2
T1 construct: expressed in transfected cells; membrane pellet
Procedure: (§1) HEK-293 cells stably expressing the human or feline FP receptor, or EP1, EP2, or EP4 receptors were washed with TME buffer, scraped from the bottom of the flasks, and homogenized for 30 sec using a Brinkman PT 10/35 polytron. TME buffer was added to achieve a final 40 ml volume in the centrifuge tubes (the composition of TME is 100 mM TRIS base, 20 mM MgCl2, […]; 10N HCl is added to achieve a pH of 7.4).
(§2) The cell homogenate was centrifuged at 19000 r.p.m. for 20 min at 4° C using a Beckman Ti-60 rotor. The resultant pellet was resuspended in TME buffer to give a final 1 mg/ml protein concentration, as determined by Biorad assay. Radioligand binding competition assays vs. [^3H-]17-phenyl PGF2α. (5 nM) were performed in a 100 μl volume for 60 min. Binding reactions were started by adding plasma membrane fraction. The reaction was terminated by the addition of 4 ml ice-cold TRIS-HCl buffer and rapid filtration through glass fiber GF/B filters using a Brandel cell harvester. The filters were washed 3 times with ice-cold buffer and oven dried for one hour.
(§3) [^3H-] PGE2 (specific activity 180 Ci mmol) was used as the radioligand for EP receptors. [^3H] 17-phenyl PGF2α, was employed for FP receptor binding studies. Binding studies employing EP1, EP2, EP4 and FP receptors were performed in duplicate in at least three separate experiments. A 200 μl assay volume was used. Incubations were for 60 min at 25° C. and were terminated by the addition of 4 ml of ice-cold 50 mM TRIS-HCl, followed by rapid filtration through Whatman GF/B filters and three additional 4 ml washes in a cell harvester (Brandel). Competition studies were performed using a final concentration of 5 nM [^3H]-PGE2, or 5 nM [^3H] 17-phenyl PGF2αand non-specific binding determined with 10^−5M of unlabeled PGE2, or 17-phenyl PGF2α, according to receptor subtype studied.

hFP = biological target: T2, hFP (Homo sapiens, UniProt P43088); assay: FLIPR calcium signal, FP; type: cell-based; settings: HEK-293(EBNA)
T2 construct: expressed in transfected cells
T2 sequence (P43088 whole entry): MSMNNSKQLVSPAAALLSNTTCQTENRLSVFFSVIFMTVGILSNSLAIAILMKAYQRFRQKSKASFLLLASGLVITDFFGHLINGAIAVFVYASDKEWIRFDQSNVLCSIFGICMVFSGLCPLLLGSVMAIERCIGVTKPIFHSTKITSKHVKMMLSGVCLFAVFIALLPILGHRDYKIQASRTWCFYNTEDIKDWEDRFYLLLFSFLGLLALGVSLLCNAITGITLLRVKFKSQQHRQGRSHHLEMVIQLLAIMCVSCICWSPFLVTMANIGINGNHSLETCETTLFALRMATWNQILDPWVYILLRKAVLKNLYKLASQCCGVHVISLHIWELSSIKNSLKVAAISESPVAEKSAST
Procedure: (§4) HEK-293(EBNA) cells, stably expressing one type or subtype of recombinant human prostaglandin receptors (prostaglandin receptors expressed: hDP/Gqs5; hEP1; hEP2/Gqs5; hEP3A/Gqi5; hEP4/Gqs5; hFP; hIP; hTP), were cultured in 100 mm culture dishes in high-glucose DMEM medium containing 10% fetal bovine serum, 2 mM 1-glutamine, 250 μg/ml geneticin (G418) and 200 μg/ml hygromycin B as selection markers, and 100 units/ml penicillin G, 100 μg/ml streptomycin and 0.25 μg/ml amphotericin B.
(§5) Cells were seeded at a density of 5×10^4 cells per well in Biocoat® Poly-D-lysine-coated black-wall, clear-bottom 96-well plates (Becton-Dickinson) and allowed to attach overnight in an incubator at 37° C. Cells were then washed two times with HBSS-HEPES buffer (Hanks Balanced Salt Solution without bicarbonate and phenol red, 20 mM HEPES, pH 7.4) using a Denley Cellwash plate washer (Labsystems). After 45 minutes of dye-loading in the dark, using the calcium-sensitive dye Fluo-4 AM at a final concentration of 2 μM, plates were washed four times with HBSS-HEPES buffer to remove excess dye leaving 100 μl in each well. Plates were re-equilibrated to 37° C. for a few minutes.
(§6) Cells were excited with an Argon laser at 488 nm, and emission was measured through a 510-570 nm bandwidth emission filter (FLIPR™, Molecular Devices, Sunnyvale, Calif.). Drug solution was added in a 50 μl volume to each well to give the desired final concentration. The peak increase in fluorescence intensity was recorded for each well. On each plate, four wells each served as negative (HBSS-HEPES buffer) and positive controls (standard agonists: BW245C (hDP); PGE2 (HEP1; hEP2/Gqs5; hEP3A/Gqi5; hEP4/Gqs5); PGF2α (hFP); carbacyclin (hIP); U-46619 (hTP), depending on receptor). The peak fluorescence change in each drug-containing well was then expressed relative to the controls.
(§7) Compounds were tested in a high-throughput (HTS) or concentration-response (CoRe) format. In the HTS format, forty-four compounds per plate were examined in duplicates at a concentration of 10^−5 M. To generate concentration-response curves, four compounds per plate were tested in duplicates in a concentration range between 10^−5 and 10^−11 M. The duplicate values were averaged. In either, HTS or CoRe format each compound was tested on at least 3 separate plates using cells from different passages to give an n≧3.

hEP1 = biological target: T3, hEP1 (Homo sapiens, UniProt P34995); assay: FLIPR calcium signal, EP1; type: cell-based; settings: HEK-293(EBNA); for EC50: read-out: Ca2+ Signal-EC50 (nM) EP1
T3 construct: expressed in transfected cells
T3 sequence (P34995 1-402): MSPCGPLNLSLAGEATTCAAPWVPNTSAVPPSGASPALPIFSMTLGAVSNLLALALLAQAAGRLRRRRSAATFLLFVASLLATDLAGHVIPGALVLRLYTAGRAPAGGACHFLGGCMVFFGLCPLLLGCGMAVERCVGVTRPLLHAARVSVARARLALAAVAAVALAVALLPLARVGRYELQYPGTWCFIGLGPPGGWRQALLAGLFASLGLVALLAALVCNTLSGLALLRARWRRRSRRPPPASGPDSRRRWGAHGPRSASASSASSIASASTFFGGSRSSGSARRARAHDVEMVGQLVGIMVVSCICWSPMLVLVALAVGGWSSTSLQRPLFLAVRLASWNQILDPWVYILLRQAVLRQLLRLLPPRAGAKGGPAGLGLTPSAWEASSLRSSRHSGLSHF
Procedure: as §4, §5, §6, §7

hEP4/Gqs5 = biological target: T4, hEP4/Gqs5 (Homo sapiens, UniProt P35408); assay: FLIPR calcium signal, EP4; type: cell-based; settings: HEK-293(EBNA); for EC50: read-out: Ca2+ Signal-EC50 (nM) EP4
T4 construct: expressed in transfected cells
T4 sequence (P35408 whole entry): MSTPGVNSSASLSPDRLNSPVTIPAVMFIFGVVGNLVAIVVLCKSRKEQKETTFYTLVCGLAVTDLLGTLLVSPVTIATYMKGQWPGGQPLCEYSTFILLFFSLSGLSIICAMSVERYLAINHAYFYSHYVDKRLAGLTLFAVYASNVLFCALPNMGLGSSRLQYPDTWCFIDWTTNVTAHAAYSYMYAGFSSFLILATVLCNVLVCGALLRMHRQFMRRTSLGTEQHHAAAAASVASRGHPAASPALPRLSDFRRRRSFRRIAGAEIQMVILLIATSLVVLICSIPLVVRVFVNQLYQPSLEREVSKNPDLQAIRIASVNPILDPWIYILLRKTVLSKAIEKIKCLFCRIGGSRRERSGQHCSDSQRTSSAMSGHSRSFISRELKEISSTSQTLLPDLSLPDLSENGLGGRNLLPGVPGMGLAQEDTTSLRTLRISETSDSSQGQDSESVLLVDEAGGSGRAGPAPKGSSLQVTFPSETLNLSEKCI
Procedure: as §4, §5, §6, §7

EP2 = EP2 (Homo sapiens, UniProt P43116); assay: Competition binding, [3H]PGE2, EP2 (Ki); design: expressed in transfected cells; membranes or whole cells; settings: HEK 293 cells stably expressing human EP2, [3H]PGE2
Sequence of EP2 (P43116 whole entry): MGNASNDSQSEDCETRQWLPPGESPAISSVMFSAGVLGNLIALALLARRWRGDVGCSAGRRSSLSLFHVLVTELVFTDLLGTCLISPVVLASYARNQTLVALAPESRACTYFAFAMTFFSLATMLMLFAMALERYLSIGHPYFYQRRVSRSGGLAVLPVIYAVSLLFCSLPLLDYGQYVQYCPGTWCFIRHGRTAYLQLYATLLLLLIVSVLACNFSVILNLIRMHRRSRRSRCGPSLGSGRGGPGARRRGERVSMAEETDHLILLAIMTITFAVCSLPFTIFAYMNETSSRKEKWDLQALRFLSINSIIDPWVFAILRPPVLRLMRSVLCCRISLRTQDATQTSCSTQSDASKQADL
Procedure: Competition binding experiments were performed in a medium containing Hank's balanced salt solution, Hepes 20 mM, pH 7.3, membranes (˜60 μg protein) or 2×10^5 cells from HEK 293 cells stably expressing human EP2 receptors, [^3H]PGE2 (10 nM) and various concentrations of test compounds in a total volume of 300 μl. Reaction mixtures were incubated at 23° C. for 60 min, and were filtered over Whatman GF/B filters under vacuum. Filters were washed three times with 5 ml ice-cold buffer containing 50 mM Tris/HCl (pH 7.3). Non-specific binding was estimated in the presence of excess unlabeled PGE2 (10 μM). Binding data fitted to the binding model for a single class of binding sites, using nonlinear regression analysis. IC50 values thus obtained were converted to Ki using the equation of Ki=(IC50/(1+[L]/KD) where [L] represents PGE2 concentration (10 nM) and KD the dissociation constant for [^3H]PGE2 at human EP2 receptors (40 nM).
as §1, §2, §3

T1 sequence (P35408 whole entry): as the sequence (P35408 whole entry) above

| Ki (EP4 receptors) [nM] | Ca2+ Signal-EC50 (nM) FP (hFP) | Ca2+ Signal-EC50 (nM) EP1 (hEP1) | EC50 (hEP4/Gqs5) [nM] | Ki (EP2) [nM] | Ca2+ Signal-EC50 (nM) EP4 (hEP4/Gqs5) | EC50 (hEP1) [nM] | Compound |
| --- | --- | --- | --- | --- | --- | --- | --- |
| 4590 | not active | not active | 947 | 3950 | – | – | CCCCCC(O)c1ccc([C@@H]2[C@@H](C/C=C\CCCC(=O)O)[C@@H](Cl)C[C@H]2O)cc1 (stereo partly drawn) [Entry 9, (Z)-7-{(1R,2S,3R,5S)-5-Chloro-3-hydroxy-2-[4-(1-hydroxy-hexyl)-phenyl]-cyclopentyl}-hept-5-enoic acid] |
| > 10000 | not active | not active | > 10000 | 209 | – | – | CCCCCC(O)c1ccc([C@@H]2[C@@H](C/C=C\CCCC(=O)O)[C@H](Cl)C[C@H]2O)cc1 (single isomer, unassigned) [Entry 12] |
| > 10000 | not active | not active | 15800 | 148 | – | – | O=C(O)CCCCCC[C@@H]1[C@@H](c2ccc(C(O)Cc3ccccc3)cc2)[C@H](O)C[C@H]1Cl (stereo partly drawn) [Entry 22, 7-{(1 R,2S,3R,5R)-5-Chloro-3-hydroxy-2-[4-(1-hydroxy-2-phenyl-ethyl)-phenyl]-cyclopentyl}-heptanoic acid] |
| 5580 | not active | not active | – | 1290 | not active | – | O=C(O)CCCCCC[C@@H]1[C@@H](c2ccc(C(O)CCC3CCCCC3)cc2)[C@H](O)C[C@H]1Cl (stereo partly drawn) [Entry 16, 7-{(1R,2S,3R,5R)-5-Chloro-2-[4-(3-cyclohexyl-1-hydroxy-propyl)-phenyl]-3-hydroxy-cyclopentyl}-heptanoic acid] |
| 3020 | not active | – | – | 24 | not active | 664 | CCCCCC(O)c1ccc([C@@H]2[C@@H](CCCc3ccc(C(=O)O)s3)[C@H](Cl)C[C@H]2O)cc1 (stereo partly drawn) [Entry 2, 5-(3-{(1R,2S,3R,5R)-5-Chloro-3-hydroxy-2-[4-(1-hydroxy-hexyl)-phenyl]-cyclopentyl}-propyl)-thiophene-2-carboxylic acid] |
| > 10000 | not active | not active | > 10000 | > 10000 | – | – | CCCC1(C(O)c2cccc([C@@H]3[C@@H](Cc4cccc(CCC(=O)O)c4)[C@H](Cl)C[C@H]3O)c2)CCC1 (stereo partly drawn) [Entry 4, 3-[3-((1R,2S,3R,5R)-5-Chloro-3-hydroxy-2-{3-[hydroxy-(1-propyl-cyclobutyl)-methyl]-phenyl}-cyclopentylmethyl)-phenyl]-propionic acid] |
| 3800 | not active | not active | 10700 | 3850 | – | – | CC(C)(C)CCCC(O)c1ccc([C@@H]2[C@@H](CCCCCCC(=O)O)[C@H](Cl)C[C@H]2O)cc1 (mixture of isomers) [Entry 20, 7-{(1R,2S,3R,5R)-5-Chloro-3-hydroxy-2-[4-(1-hydroxy-5,5-dimethyl-hexyl)-phenyl]-cyclopentyl}-heptanoic acid] |
| > 10000 | not active | not active | > 10000 | 77 | – | – | O=C(O)CCC/C=C\C[C@@H]1[C@@H](c2ccc(C(O)Cc3ccccc3)cc2)[C@H](O)C[C@H]1Cl (mixture of isomers) [Entry 21, (Z)-7-{(1R,2S,3R,5R)-5-Chloro-3-hydroxy-2-[4-(1-hydroxy-2-phenyl-ethyl)-phenyl]-cyclopentyl}-hept-5-enoic acid] |
| > 10000 | not active | – | > 10000 | 2160 | – | 4520 | O=C(O)CCCCCC[C@@H]1[C@@H](c2ccc(C(O)CCc3ccccc3)cc2)[C@H](O)C[C@H]1Cl (stereo partly drawn) [Entry 24, 7-{(1R,2S,3R,5R)-5-Chloro-3-hydroxy-2-[4-(1-hydroxy-3-phenyl-propyl)-phenyl]-cyclopentyl}-heptanoic acid] |
| 8610 | not active | not active | > 10000 | 287 | – | – | CCCCCC(O)c1ccc([C@@H]2[C@@H](CCCCCCC(=O)O)[C@H](Cl)C[C@H]2O)cc1 (stereo partly drawn) [Entry 14, 7-{(1R,2S,3R,5R)-5-Chloro-3-hydroxy-2-[4-(1-hydroxy-hexyl)-phenyl]-cyclopentyl}-heptanoic acid] |
| 4940 | not active | not active | > 10000 | 2290 | – | – | O=C(O)CCCCCC[C@@H]1[C@@H](c2ccc(C(O)CC3CCCCC3)cc2)[C@H](O)C[C@H]1Cl (stereo partly drawn) [Entry 18, 7-{(1R,2S,3R,5R)-5-Chloro-2-[4-(2-cyclohexyl-1-hydroxy-ethyl)-phenyl]-3-hydroxy-cyclopentyl}-heptanoic acid] |
| > 10000 | not active | not active | – | 1660 | not active | – | CCCC(O)c1ccc([C@@H]2[C@@H](C/C=C\CCCC(=O)O)[C@H](Cl)C[C@H]2O)cc1 (stereo partly drawn) [Entry 26, (Z)-7-{(1R,2S,3R,5R)-5-Chloro-3-hydroxy-2-[4-(1-hydroxy-butyl)-phenyl]-cyclopentyl}-hept-5-enoic acid] |
